In patent US20260265334A1, “STAPLED PEPTIDES” (THE FLOREY INSTITUTE OF NEUROSCIENCE AND MENTAL HEALTH, priority 2023, published 2026):
Values belong to the compound of their own block, whether it stands above or below them. Bridge positions count the residues as written; N and C are the ends. Square brackets hold non-standard residues; d marks the D form. Peptide text beside a SMILES is read from it. I, II: the chains in the order shown. αMeF = C[C@](N)(Cc1ccccc1)C(=O)O

Experiments:
[1] = tested on: C57B16 mice; assay: Colorectal propulsion (bead expulsion) in loperamide-constipated mice; format: in vivo, mouse; details: 20 μg/kg i.p., 10 minutes after loperamide 1 mg/kg s.c.
Experimental: Male C57B16 mice (20-30 g; ARC), between the ages of 3 to 5 months, were used for all studies. All experiments were conducted in accordance with the National Health and Medical Research Council (NHMRC) guidelines for the care and use of animals and with approval from the Florey Institute of Neuroscience and Mental Health Animal Ethics Committee (#18-128 FINMH and #18-081 FINMH). All animals were group housed (2-6 per cage) and maintained in a humidity-controlled room at 22° C. under a 12 hours light/dark cycle with access to food and water ad libitum.
Loperamide (Sigma-Aldrich) was prepared in 1% Tween-80 (SigmaAldrich) in distilled water and was administered subcutaneously (s.c.) at the back of the neck to induce constipation. Mice were injected with either vehicle (1% Tween-80/water) or loperamide (0.3, 1, 3 mg/kg). INSL5-A13 (20 μg/kg) (SEQ ID NOs 9 and 10) and single-chain αF stapled analogue (200 μg/kg) (SEQ ID NO 16) were dissolved in distilled water and injected intraperitoneally (i.p.) 10 minutes after loperamide was administered (1 mg/kg, s.c.). At 20 minutes post peptide injection, mice were lightly anesthetized with 2% (v/v) isoflurane in O2, administered at 1 L/min for a maximum of 15 seconds following induction with 5% isoflurane in O2 at 1 L/min. […] The time taken from bead insertion to bead expulsion was recorded. […] The time was scored as 30 minutes. […]

[2] = target: T1, RXFP4 (Homo sapiens, UniProt Q8TDU9); assay: Eu-R3/I5 competition binding assay in CHO-K1-RXFP4 cells; parameters: expressed in transfected cells
Experimental: An Eu-R3/15 competition binding assay in CHO-K1-RXFP4 cells was carried out.
(§1) Competition binding curves for each peptide were performed in triplicate and each experiment was performed independently at least three times. Fluorescent measurements were carried out at excitation of 340 nm and emission of 614 nm on a BMG POLARstar plate reader (BMG Labtech, Melbourne, Australia). Pooled data were presented as mean±S.E.M. of specific binding and are fitted using a one-site binding curve in GraphPad Prism version 8 (GraphPad Inc., San Diego, USA). Statistical analyses were conducted using one-way analysis of variance with uncorrected Fisher's least significant difference (LSD) post-hoc analysis in GraphPad Prism version 9.
(§2) An additional analogue of INSL5 was utilised as a control, INSL5-A13, having an A chain (SEQ ID NO: 9) and a B chain (SEQ ID NO: 10) with a first disulfide bond between Cys 1 of the A chain and Cys 7 of the B chain, and a second disulfide bond between Cys 14 of the A chain and Cys 19 of the B chain:
(§3) Competition binding and cAMP activity assay were conducted by a procedure analogous to that described above for Example 3. The results are shown in FIG. 24 (RXFP3) and FIG. 25 (RXFP4).
Target sequence in this assay (Q8TDU9 whole entry): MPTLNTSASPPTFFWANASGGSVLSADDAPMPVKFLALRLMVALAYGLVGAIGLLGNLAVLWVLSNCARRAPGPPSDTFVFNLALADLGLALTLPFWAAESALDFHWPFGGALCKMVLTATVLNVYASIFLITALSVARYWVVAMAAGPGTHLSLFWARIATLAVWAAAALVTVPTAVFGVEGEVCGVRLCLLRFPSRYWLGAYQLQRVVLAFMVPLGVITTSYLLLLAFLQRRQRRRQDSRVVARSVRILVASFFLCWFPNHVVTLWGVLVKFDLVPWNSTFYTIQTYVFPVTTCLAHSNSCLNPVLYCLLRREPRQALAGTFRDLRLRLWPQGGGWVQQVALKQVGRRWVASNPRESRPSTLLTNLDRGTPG

[3] = target: T1, RXFP4; assay: Inhibition of forskolin-induced cAMP activity in CHO-K1-RXFP4 cells (pCRE β-galactosidase reporter); format: cell-based; parameters: expressed in transfected cells
Experimental: For agonist assays, cells were stimulated with forskolin (5 μM for RXFP3, 1 μM for RXFP4)±increasing concentrations of each peptide for 6 hours. Data were expressed as the % forskolin activity, whereby 100% was defined as forskolin alone and 0% as maximum agonist stimulation (1 μM Analogue 2 for RXFP3 and 1 μM Analogue 13 for RXFP4). Data were analysed and plotted using GraphPad Prism 9 and are expressed as the mean±SEM of the pooled data. Statistical analysis was conducted using one-way ANOVA with Uncorrected Fisher's LSD post-hoc analysis using GraphPad Prism 9.
as §2, §3
Target sequence in this assay (Q8TDU9 whole entry): as above

[4] = target: T2, RXFP3 (Homo sapiens, UniProt Q9NSD7); assay: Eu-H3B1-22R competition binding assay in CHO-K1-RXFP3 cells; details: 5 nM Eu-H3B1-22R, mean ± SEM (n), Table 2, read-out: Eu-H3B1-22R pKi (converted)
T2 construct: expressed in transfected cells
T2 sequence (Q9NSD7 1-469): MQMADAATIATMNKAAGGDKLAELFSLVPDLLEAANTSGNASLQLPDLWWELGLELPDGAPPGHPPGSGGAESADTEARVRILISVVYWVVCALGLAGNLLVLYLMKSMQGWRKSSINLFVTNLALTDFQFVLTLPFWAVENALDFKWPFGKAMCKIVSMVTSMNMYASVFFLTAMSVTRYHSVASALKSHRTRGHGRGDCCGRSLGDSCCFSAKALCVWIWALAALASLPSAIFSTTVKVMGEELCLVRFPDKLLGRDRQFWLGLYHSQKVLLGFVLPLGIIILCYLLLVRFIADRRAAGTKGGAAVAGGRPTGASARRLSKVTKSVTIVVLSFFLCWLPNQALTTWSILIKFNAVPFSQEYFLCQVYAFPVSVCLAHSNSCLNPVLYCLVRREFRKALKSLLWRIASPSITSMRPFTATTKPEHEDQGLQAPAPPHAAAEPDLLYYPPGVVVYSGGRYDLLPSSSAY
Experimental: An Eu-H3B1-22R competition binding assay was conducted in CHO-K1-RXFP3 cells.
as §1, §3

[5] = target: T2, RXFP3; assay: Inhibition of forskolin-induced cAMP activity in CHO-K1-RXFP3 cells (pCRE β-galactosidase reporter); format: cell-based; details: 5 μM forskolin, 6 hours, Table 2, read-out: cAMP pEC50 (converted)
Experimental: Since RXFP3 is coupled to Gi/o proteins, peptides were tested for their ability to activate RXFP3 as measured via their ability to inhibit forskolin-induced cAMP activity in CHO-K1-RXFP3 or CHO-K1-RXFP4 cells transfected with a pCRE (cAMP Response Element) β-galactosidase reporter plasmid (as described in Belgi, A et al., Structure and function relationship of murine insulin-like peptide 5 (INSL5): free C-terminus is essential for RXFP4 receptor binding and activation. Biochemistry 2011, 50 (39), 8352-61; and Haugaard-Kedstrom, L. M et al., Synthesis and pharmacological characterization of a europium-labelled single-chain antagonist for binding studies of the relaxin-3 receptor RXFP3. Amino Acids 2015, 47 (6), 1267-71). For agonist assays, cells were stimulated with forskolin (5 μM for RXFP3, 1 μM for RXFP4)±increasing concentrations of each peptide for 6 hours. Data were expressed as the % forskolin activity, whereby 100% was defined as forskolin alone and 0% as maximum agonist stimulation (1 μM Analogue 2 for RXFP3 and 1 μM Analogue 13 for RXFP4). Data were analysed and plotted using GraphPad Prism 9 and are expressed as the mean±SEM of the pooled data. Statistical analysis was conducted using one-way ANOVA with Uncorrected Fisher's LSD post-hoc analysis using GraphPad Prism 9.
as §3

[6] = target: T3, RXFP3 (Homo sapiens, UniProt Q9NSD7); assay: NanoBRET β-arrestin2 recruitment assay, RXFP3-NLuc / Venus-β-arrestin2 in HEK293T cells; format: cell-based
T3 construct: expressed in transfected cells; host or cells: HEK293T (transient, Lipofectamine 2000, pcDNA3.1/Zeo(+))
Experimental: (§4) The inventors assessed if H3B10-27(13/17αF) retained the ability to recruit β-arrestin2 and therefore display full agonist activity at RXFP3 and RXFP4, in comparison to Peptide 5.
The RXFP3 β-arrestin2 recruitment assay was carried out by PCR cloning NLuc onto the C-terminus of human RXFP3 in an identical manner to the RXFP3-rLuc8 construct to create pcDNA3.1-RXFP3-NLuc. The construct was sequenced on both strands to confirm that the NLuc was in frame with RXFP3 and there were no additional PCR mutations. pcDNA3.1-RXFP3-NL was tested in parallel with pcDNA3.1-RXFP3 in cAMP activity assays to determine if the C-terminal nanoluciferase fusion affected agonist activity.
For NanoBRET β-arrestin2 recruitment assays, HEK293T cells were plated onto a six-well plate, and were transfected the following day with β-arrestin2-Venus and either RXFP3-Nluc or RXFP4-Nluc, in the pcDNA3.1/Zeo(+) vector, using Lipofectamine 2000. The next day, cells were washed with DPBS and resuspended in complete media containing 25 mM HEPES but no phenol red, and were seeded into a 96-well CulturPlate (PerkinElmer). […] Emissions were detected simultaneously using a PHERAstar FSX plate reader (BMG Labtech) with 450/80 nm and 535/30 nm filters. Ligand-induced BRET ratio was calculated by subtracting the ratio of 535/30 nm emissions to 450/80 nm emissions for vehicle from the same ratio for ligand-treated wells. […]
T3 sequence (P32121 whole entry partner, one chain of several): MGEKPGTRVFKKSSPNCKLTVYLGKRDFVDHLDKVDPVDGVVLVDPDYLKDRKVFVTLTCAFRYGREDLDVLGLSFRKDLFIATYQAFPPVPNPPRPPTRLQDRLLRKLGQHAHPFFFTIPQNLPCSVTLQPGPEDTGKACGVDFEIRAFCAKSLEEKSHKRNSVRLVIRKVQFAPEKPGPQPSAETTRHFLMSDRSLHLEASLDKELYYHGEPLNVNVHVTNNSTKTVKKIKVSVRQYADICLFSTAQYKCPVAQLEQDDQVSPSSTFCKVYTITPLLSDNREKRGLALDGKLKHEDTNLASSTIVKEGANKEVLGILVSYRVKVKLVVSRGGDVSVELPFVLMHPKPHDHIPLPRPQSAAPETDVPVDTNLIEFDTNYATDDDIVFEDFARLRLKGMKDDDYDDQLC

[7] = In vitro serum stability in human serum at 37° C.; details: human serum
Experimental: Human serum (400 μl) was mixed with 200 μg peptide dissolved in 100 μl of water at 37° C. Eighty (80) μl of sample was removed at various time points (0 min, 30 min, 60 min, 120 min, 240 min, and 480 min), and 160 μl of acetonitrile added to precipitate plasma proteins. The solution was then centrifuged at 12000 rpm for 15 min at 4° C. 200 μl of supernatant was taken and mixed with 240 μl of milli-Q water and each sample analysed by RP-HPLC (2×80 μL injection) by measuring the area under the peak at appropriate retention times compared to the peak area of the peptide at time zero (100%). Data analysis (n=3, duplicate) was performed using a non-linear fit one-phase decay model in GraphPad Prism 9.

[8] = target: T1, RXFP4; assay: NanoBRET β-arrestin2 recruitment assay, RXFP4-NLuc / Venus-β-arrestin2 in HEK293T cells; format: cell-based; parameters: expressed in transfected cells; host or cells: HEK293T (transient, Lipofectamine 2000, pcDNA3.1/Zeo(+)); details: AUC of the entire time course; text of b227; read-out: pEC50, RXFP4 β-arrestin2 recruitment (converted)
Experimental: as §4
Target sequence in this assay (Q8TDU9 whole entry): as the sequence (Q8TDU9 whole entry) above
Target sequence in this assay (P32121 whole entry partner): as the sequence (P32121 whole entry partner, one chain of several) above
For NanoBRET β-arrestin2 recruitment assays, HEK293T cells were plated onto a six-well plate, and were transfected the following day with β-arrestin2-Venus and either RXFP3-Nluc or RXFP4-Nluc, in the pcDNA3.1/Zeo(+) vector, using Lipofectamine 2000. The next day, cells were washed with DPBS and resuspended in complete media containing 25 mM HEPES but no phenol red, and were seeded into a 96-well CulturPlate (PerkinElmer). The next day, prior to the assay, cells were pre-incubated in phenol red free media with NLuc substrate, 5 μM coelenterazine 400a for RXFP3-nLuc and 5 μM coelenterazine h for RXFP4-NLuc (both from Nanolight, Pinetop, AZ, USA) to establish a baseline, before addition of ligand or vehicle. Emissions were detected simultaneously using a PHERAstar FSX plate reader (BMG Labtech) with 450/80 nm and 535/30 nm filters. Ligand-induced BRET ratio was calculated by subtracting the ratio of 535/30 nm emissions to 450/80 nm emissions for vehicle from the same ratio for ligand-treated wells. […]

[9] = tested on: mouse model of inflammatory persistent pain; assay: CFA model of inflammatory persistent pain; format: in vivo; details: co-injection with RXFP3 agonist
Experimental: Pilot studies were conducted in a mouse model of inflammatory persistent pain obtained by intraplantar injection of Complete Freund's Adjuvant (CFA). […] The effect is maximal at 30 minutes after the injection and vanished after 1 hour. The same result has been obtained in a rat CFA model with a similar time course of the antinociceptive effect.

Eu-R3/I5 pKi ([2]; RXFP4, Table 5): 7.46 ± 0.06 (7) | cAMP pEC50 ([3]; RXFP4, Table 5): 8.10 ± 0.10 (4)
Compound: CC[C@H](C)[C@@H]1NC(=O)[C@H](Cc2ccc(O)cc2)NC(=O)[C@H]([C@@H](C)CC)NC(=O)[C@H](C(C)C)NC(=O)[C@H]([C@@H](C)O)NC(=O)[C@H](CCCNC(=N)N)NC(=O)[C@H]([C@@H](C)CC)NC(=O)[C@H](Cc2ccc(O)cc2)NC(=O)[C@H](CCC(=O)O)NC(=O)[C@H](CC(C)C)NC(=O)CNC(=O)[C@@H](NC(=O)[C@H](CC(C)C)NC(=O)[C@H](CCCNC(=N)N)NC(=O)[C@@H](NC(=O)[C@H](CO)NC(=O)[C@H](CCC(=O)O)NC(=O)[C@@H](N)CCCCN)C(C)C)CSSC[C@H](N)C(=O)N[C@@H]([C@@H](C)O)C(=O)N[C@@H](CC(=O)O)C(=O)NCC(=O)N[C@@H](C)C(=O)N[C@@H](CO)C(=O)N[C@@H](CCSC)C(=O)N[C@@H](CCCCN)C(=O)N[C@@H](CC(=O)O)C(=O)N[C@@H](CC(C)C)C(=O)N[C@@H](CO)C(=O)N[C@@H](C)C(=O)N[C@@H](CC(C)C)C(=O)N[C@H](C(=O)O)CSSC[C@@H](C(=O)N[C@@H](C)C(=O)N[C@@H](CO)C(=O)N[C@@H](CO)C(=O)N[C@@H](CCCNC(=N)N)C(=O)N[C@@H](Cc2c[nH]c3ccccc23)C(=O)O)NC1=O [INSL5-A13] (I: H-KESVRLCGLEYIRTVIYICASSRW-OH / II: H-CTDGASMKDLSALC-OH; disulfide I:7-II:1, I:19-II:14; N-terminus and C-terminus assumed)
colorectal propulsion (bead expulsion) [1]: effective in accelerating colorectal propulsion

Ki [4]: 0.148 µM | EC50 [5]: 0.00692 µM | EC50 ([6]; AUC of NanoBRET time course, Table 4, read-out: RXFP3 pEC50 (β-arrestin2 recruitment) (converted)): 0.0646 µM | EC50 ([6]; AUC of the entire time course, text of b227, read-out: pEC50, RXFP3 β-arrestin2 recruitment (converted)): 0.0891 µM | Ki ([2]; RXFP4, CHO-K1-RXFP4 cells, 5 nM Eu-R3/I5, Table 3, read-out: Eu-R3/I5 pKi (converted)): 0.155 µM | EC50 ([3]; RXFP4, CHO-K1-RXFP4 cells, 1 μM forskolin, 6 hours, Table 3, read-out: cAMP pEC50 (converted)): 0.055 µM | half-life at 400 µg/mL [7]: ~5 h | EC50 [8]: 2.69 µM
Compound: CC[C@H](C)[C@H](NC(=O)[C@H](Cc1ccccc1)NC(=O)[C@](C)(Cc1ccccc1)NC(=O)[C@H](CCCNC(=N)N)NC(=O)CNC(=O)[C@@H](N)CO)C(=O)N[C@@H](CCCNC(=N)N)C(=O)N[C@@](C)(Cc1ccccc1)C(=O)N[C@H](C(=O)N[C@H](C(=O)N[C@@H](Cc1ccccc1)C(=O)N[C@H](C(=O)N[C@@H](CO)C(=O)NCC(=O)NCC(=O)N[C@@H](CO)C(=O)N[C@@H](CCCNC(=N)N)C(=O)N[C@@H](Cc1c[nH]c2ccccc12)C(=O)O)[C@@H](C)O)[C@@H](C)CC)C(C)C [H3B10-27(13/17αF)] (H-SGR[αMeF]FIR[αMeF]VIFTSGGSRW-OH)

Compound: R3(B1-22): R3(B1-22) RXFP3 antagonist, co-injected in pain model; possibly the same as H3B1-22R (RAAPYGVRLSGREFIRAVIFTSR)
effect of co-injection on the antinociceptive effects of the agonists [9]: fully abolished
